This note sets out measurements from the C3SDB collision cross section collection.

The conditions of data set [1]: [M+H]+; instrument: TW; Major Mix IMS/Tof Calibration Kit (Waters).
For data set [2] the following is noted: instrument: DT, single field, calibrated with Agilent tune mix (Agilent).
The conditions of data set [3]: instrument: TW, calibrated with phosphatidylcholines (ESI+) and phosphatidylethanolamines (ESI-).
For data set [4] the following is noted: [M+H]+; instrument: DT; stepped-field.

In the case of `O=C1Nc2ccc(Br)cc2C(c2ccccn2)=NC1O` (stereo unspecified) [3-Hydroxybromazepam], the “collision cross section (N2)” value in data set [1] was 161 Å².
Still for that read-out and setting: the same measure for `COc1ccc2cccc(CCNC(C)=O)c2c1` [Agomelatine]: 156.3 Å²; for `CC(CN(C)C)CN1c2ccccc2Sc2ccccc21` (stereo unspecified) [Alimemazine]: 166.8 Å².
On the same count and under the same terms, the same measure for `CN(C)CCc1c[nH]c2ccc(CS(=O)(=O)N3CCCC3)cc12` [Almotriptan]: 175.8 Å²; for `CCCCc1oc2ccccc2c1C(=O)c1cc(I)c(OCCNCC)c(I)c1` [Amiodarone-M N-Desethyl]: 219.8 Å².
As to `CCCC1C(=O)N2C(N(C)C)=Nc3ccc(C)cc3N2C1=O` (stereo unspecified) [Apazone], in data set [1], the “collision cross section (N2)” value is given as 169.5 Å².
Turning to `CN1C[C@@H]2c3ccccc3Oc3ccc(Cl)cc3[C@H]2C1` [Asenapine], in data set [1], the “collision cross section (N2)” value was determined as 167.6 Å².
For `CNCC[C@@H](Oc1ccccc1C)c1ccccc1` [Atomoxetine], in data set [1], the “collision cross section (N2)” value is on record as 164.2 Å².
Still for that read-out and setting: with `CC(C)c1c(C(=O)Nc2ccccc2)c(-c2ccccc2)c(-c2ccc(F)cc2)n1CC[C@@H](O)C[C@@H](O)CC(=O)O` [Atorvastatin] the figure was 233 Å²; with `CN(C)C(=O)Oc1cc(OC(=O)N(C)C)cc(C(O)CNC(C)(C)C)c1` (stereo unspecified) [Bambuterol], 189.7 Å²; with `OC(CCN1CCCCC1)(c1ccccc1)C1C[C@H]2C=C[C@@H]1C2` (stereo partly specified) [Biperiden], 177.7 Å².
Turning to `O=C1CN=C(c2ccccn2)c2cc(Br)ccc2N1` [Bromazepam], the “collision cross section (N2)” value in data set [1] is recorded as 159.8 Å².
On the same count and under the same terms, the same measure for `C[C@@H](N)Cc1c2ccoc2c(Br)c2ccoc12` [Bromodragonfly]: 158.1 Å²; for `CO[C@]12CC[C@@]3(C[C@@H]1[C@](C)(O)C(C)(C)C)[C@H]1Cc4ccc(O)c5c4[C@@]3(CCN1CC1CC1)[C@H]2O5` [Buprenorphine]: 209.7 Å².
On the same count and under the same terms, the same measure for `COc1cc(CNC(=O)CCCC/C=C/C(C)C)ccc1O` [Capsaicin]: 183 Å²; for `O=C(O)COCCN1CCN(C(c2ccccc2)c2ccc(Cl)cc2)CC1` (stereo unspecified) [Cetirizine]: 200.8 Å².
Still for that read-out and setting: the same measure for `CN(C)CCCN1c2ccccc2Sc2ccc(Cl)cc21` [Chlorpromazine]: 170.6 Å².
Regarding `O=C1CC(=O)N(c2ccccc2)c2cc(Cl)ccc2N1` [Clobazam-M nor], in data set [1], the “collision cross section (N2)” value was 161.7 Å².
On the same count and under the same terms, the same measure for `CN1C(=O)CC(=O)N(c2ccccc2)c2cc(Cl)ccc21` [Clobazam]: 165.7 Å².
For `CCCCCCCCCCCCCCCCCC(=O)O[C@H](CO)COP(=O)([O-])OCC[N+](C)(C)C` [LPC(18:0)], the “collision cross section (N2)” value in data set [2] ([M+HCOO]-) was determined as 241.4 Å²; in data set [2] ([M+H]+) it was 237.9 Å²; in data set [2] ([M+Na]+), 240.8 Å²; in data set [3] ([M+H]+), 235.7 Å²; in data set [4] it was 240.7 Å².
Consider `CCCCCCCCCCCCCCCCCC(=O)O[C@H](CO)COP(=O)(O)OCCN` [LPE(18:0)], for which the “collision cross section (N2)” value in data set [2] ([M+Na]+) is 227.5 Å²; in data set [2] ([M-H]-), 214.1 Å²; in data set [3] ([M+H]+), 220.8 Å²; in data set [3] ([M+Na]+) it was 224.8 Å²; in data set [3] ([M-H]-), 212.9 Å².
As to `CCCCCCCC/C=C\CCCCCCCCCC(=O)O[C@H](COC(=O)CCCCCCCCCCCCC)COP(=O)(O)O` [PA(34:1)], the “collision cross section (N2)” value in data set [2] ([M+H]+) came to 271 Å²; in data set [2] ([M+NH4]+), 271.2 Å²; in data set [2] ([M+Na]+), 268.5 Å²; in data set [2] ([M-H]-) it was 255.6 Å²; in data set [3] ([M-H]-) it was 254.7 Å².
As to `CCCCC/C=C\C/C=C\CCCCCCCC(=O)O[C@H](COC(=O)CCCCCCCCCCCCCCC)COP(=O)(O)O` [PA(34:2)], the “collision cross section (N2)” value is 267.5 Å² in data set [2] ([M+H]+), 267.8 Å² in data set [2] ([M+NH4]+), 266.5 Å² in data set [2] ([M+Na]+) and 253.4 Å² in data set [3] ([M-H]-).
Consider `CC/C=C\C/C=C\C/C=C\C/C=C\CCCCC(=O)OC[C@H](COP(=O)(O)O)OC(=O)CCCCCCCCC/C=C\CCCCCCCC` [PA(38:5)], for which the “collision cross section (N2)” value in data set [2] ([M+NH4]+) came to 277.2 Å²; in data set [3] ([M-H]-), 261.6 Å².
Regarding `CCCCCC/C=C\CCCCCCCCCCCC(=O)O[C@H](COC(=O)CCCCCCCCC/C=C\CCCCCC)COP(=O)([O-])OCC[N+](C)(C)C` [PC(38:2)], the “collision cross section (N2)” value in data set [2] ([M+H]+) is 297 Å²; in data set [3] ([M+H]+) it was 293.7 Å².
`CCCCC/C=C\C/C=C\C/C=C\CCCCC(=O)OC[C@H](COP(=O)([O-])OCC[N+](C)(C)C)OC(=O)CCCCCCCCC/C=C\CCCCCCCC` [PC(38:4)]: the “collision cross section (N2)” value in data set [2] ([M+HCOO]-) was found to be 294.4 Å²; in data set [2] ([M+Na]+) it was 298.5 Å²; in data set [3] ([M+CH3COO]-) it was 296.3 Å²; in data set [3] ([M+H]+), 291.2 Å².
Turning to `CCCCC/C=C\C/C=C\C/C=C\C/C=C\CCCCCC(=O)O[C@H](COC(=O)CCCCCCC/C=C\C/C=C\CCCCC)COP(=O)([O-])OCC[N+](C)(C)C` [PC(40:6)], the “collision cross section (N2)” value is recorded as 296.2 Å² in data set [2] ([M+H]+) and 293.3 Å² in data set [3] ([M+H]+).
`CCCC/C=C\C/C=C\CCCCCCCC(=O)OC[C@H](COP(=O)(O)OCCN)OC(=O)CCCCCCC/C=C\CCCCCCCCC` [PE(36:3)]: the “collision cross section (N2)” value stood at 274.9 Å² in data set [2] ([M+H]+); 279.9 Å² in data set [2] ([M+Na]+); 266.1 Å² in data set [2] ([M-H]-); 273.7 Å² in data set [3] ([M+H]+); 266.7 Å² in data set [3] ([M-H]-).
For `CCCCC/C=C\C/C=C\CCCCCCCC(=O)O[C@H](CO/C=C\CCCCCCCCCCCCCC)COP(=O)(O)OCCN` [PE(p34:2)], the entries for the “collision cross section (N2)” value in data set [2] ([M+H]+), in data set [2] ([M-H]-) and in data set [3] ([M+H]+) were 270 Å², 261.1 Å² and 271.8 Å², respectively.
For `CC/C=C\C/C=C\C/C=C\C/C=C\C/C=C\CCCC(=O)O[C@H](CO/C=C\CCCCCCCCCCCCCCCC)COP(=O)(O)OCCN` [PE(p38:5)], the “collision cross section (N2)” value in data set [2] ([M+H]+) turned out to be 280.2 Å²; in data set [2] ([M-H]-), 270.6 Å²; in data set [3] ([M+H]+), 278.3 Å²; in data set [3] ([M+Na]+), 279.4 Å²; in data set [3] ([M-H]-) it was 268.7 Å².
Regarding `CCCCC/C=C\C/C=C\C/C=C\CCCCCCC(=O)O[C@H](CO/C=C\CCCCCCCCCCCCCCCCCC)COP(=O)(O)OCCN` [PE(p40:3)], the “collision cross section (N2)” value in data set [2] ([M-H]-) is 277.1 Å²; in data set [3] ([M+H]+), 287.9 Å².
On to `CCCC/C=C\CCCCCCCC(=O)OC[C@H](COP(=O)(O)OC[C@@H](O)CO)OC(=O)CCCCCCCCC/C=C\C/C=C\CCCCC` [PG(34:3)], for which the “collision cross section (N2)” value in data set [2] ([M-H]-) worked out at 266.2 Å²; in data set [3] ([M+Na]+), 275.1 Å².
As for `CC/C=C\C/C=C\C/C=C\C/C=C\CCCCC(=O)OC[C@H](COP(=O)(O)OC[C@@H](O)CO)OC(=O)CCCCCCCCC/C=C\CCCCCCCC` [PG(38:5)], the “collision cross section (N2)” value in data set [2] ([M+H]+) was 292.1 Å²; in data set [2] ([M+Na]+), 288.8 Å²; in data set [3] ([M+Na]+), 285.9 Å²; in data set [3] ([M-H]-), 276.5 Å².
As to `CC/C=C\C/C=C\C/C=C\C/C=C\C/C=C\C/C=C\CCC(=O)O[C@H](COC(=O)CCCCCCCCCCCCCCC)COP(=O)(O)OC[C@@H](O)CO` [PG(38:6)], the “collision cross section (N2)” value in data set [2] ([M+H]+) was 289.3 Å²; in data set [2] ([M+NH4]+), 290.2 Å²; in data set [2] ([M+Na]+), 286 Å²; in data set [3] ([M+Na]+), 284 Å²; in data set [3] ([M-H]-), 275.6 Å².
As for `CCCCC/C=C\C/C=C\C/C=C\C/C=C\CCCCCC(=O)OC[C@H](COP(=O)(O)OC[C@@H](O)CO)OC(=O)CCCCCCC/C=C\CCCCCCCC` [PG(40:5)], the “collision cross section (N2)” value in data set [2] ([M+NH4]+) was 298.9 Å²; in data set [2] ([M+Na]+), 295.2 Å²; in data set [2] ([M-H]-), 283.4 Å²; in data set [3] ([M+Na]+), 292.7 Å²; in data set [3] ([M-H]-), 283 Å².
Turning to `CCCCCCCCCC/C=C\CCCCCCCCCC(=O)O[C@H](COC(=O)CCCCCCCCCCC)COP(=O)(O)O[C@H]1C(O)C(O)C(O)[C@@H](O)C1O` (stereo partly specified) [PI(34:1)], the “collision cross section (N2)” value in data set [2] ([M+H]+) was found to be 294.9 Å²; in data set [2] ([M+NH4]+), 295.8 Å²; in data set [2] ([M+Na]+), 292.4 Å²; in data set [2] ([M-H]-), 283.7 Å²; in data set [3] ([M-H]-), 283.7 Å².
`CCCCC/C=C\C/C=C\CCCCCCCCCCCC(=O)O[C@H](COC(=O)CCCCCCCCCCC)COP(=O)(O)O[C@H]1C(O)C(O)C(O)[C@@H](O)C1O` (stereo partly specified) [PI(34:2)]: the “collision cross section (N2)” value in data set [2] ([M+H]+) amounted to 291.6 Å²; in data set [2] ([M+NH4]+) it was 292.9 Å²; in data set [2] ([M-H]-), 282.4 Å²; in data set [3] ([M-H]-), 282.4 Å².
As for `CCCCC/C=C\C/C=C\CCCCCCCCCCCC(=O)O[C@H](COC(=O)CCCCCCC/C=C\C/C=C\CCCCC)COP(=O)(O)O[C@H]1C(O)C(O)C(O)[C@@H](O)C1O` (stereo partly specified) [PI(40:4)], the entries for the “collision cross section (N2)” value in data set [2] ([M+Na]+), in data set [2] ([M-H]-) and in data set [3] ([M-H]-) were 307.1 Å², 298.2 Å² and 297.1 Å², respectively.
